# Reference: US20150224190A1, “Combination of a phosphoinositide 3-kinase inhibitor and an inhibitor of the IL-8/CXCR interaction” (priority 2012, published 2015)
# What was measured:
# IL-8 = IL-8 levels in dissected primary triple-negative breast tumors or plasma of mice (ELISA); format: in vivo, human; conditions: day 3 of treatment with 30 mg/kg BEZ235 vs vehicle
# Procedure: FIG. 5. BEZ235 treatment activates JAK2/STAT5 and IL-8 secretion in human primary triple-negative breast tumors Bar graphs showing IL-8 levels measured by ELISA in the dissected tumors from or in the plasma of mice at day 3 of treatment with 30 mg/kg BEZ235 or vehicle (VHC). Results represent means±SEM (n=3-4, *P<0.05). For assessing pJAK2 levels, an ELISA assay ([…]/1008, Invitrogen) was applied because of cross-reactivity of all pJAK2 antibodies tested. Interleukin-8 levels in RIPA lysates, cell culture supernatants and mouse tail vein blood plasma were measured by ELISA, as well (Biolegend). Cytokine arrays on cell culture supernatants and mouse tumor lysates were performed according the manufacture's protocol (R & D systems, Human and Mouse cytokine array panel A). […] Tumors were measured every 3 to 4 days with vernier calipers, and tumor volumes were calculated by the formula 0.5×(larger diameter)×(smaller diameter)^2. End point tumor sizes were analyzed for synergism using the formula AB/C<A/C×B/C, where C=tumor volume VHC, A=tumor volume compound 1, B=tumor volume compound 2, AB=tumor volume combination (Clarke, 1997).
# JAK2/STAT5 = JAK2/STAT5 activation in human primary triple-negative breast tumors grown in immunodeficient mice; format: in vivo; conditions: 30 mg/kg BEZ235 for 4 days vs vehicle
# Procedure: FIG. 4. BEZ235 treatment activates JAK2/STAT5 and IL-8 secretion in human primary triple-negative breast tumors Immunoblots of lysates from primary triple-negative breast tumors grown in immunodeficient mice and treated for 4 days with 30 mg/kg BEZ235 or vehicle (VHC). pJAK2 levels were measured in triplicate by ELISA and normalized to total JAK2 levels (Y-axis).
# Cells for Western Blotting and ELISA were lysed with RIPA buffer. […]
# For assessing pJAK2 levels, an ELISA assay (Tyr1007/1008, Invitrogen) was applied because of cross-reactivity of all pJAK2 antibodies tested. Interleukin-8 levels in RIPA lysates, cell culture supernatants and mouse tail vein blood plasma were measured by ELISA, as well (Biolegend). […]
smiles,measurement,setting,value
"Cn1c(=O)n(-c2ccc(C(C)(C)C#N)cc2)c2c3cc(-c4cnc5ccccc5c4)ccc3ncc21 [COMPOUND A, 2-methyl-2-[4-(3-methyl-2-oxo-8-quinolin-3-yl-2,3-dihydro-imidazo[4,5-c]quinolin-1-yl)-phenyl]-propionitrile]",IL-8 secretion (IL-8 levels in tumors or plasma),IL-8,activates
same,"JAK2/STAT5 activation (pJAK2 normalized to total JAK2, immunoblots)",JAK2/STAT5,activates
